In the assay the test system is compound 48/80-induced lethality. Briefly: Protection of rats from compound 48/80-induced lethality. The following applies: Rattus norvegicus; test compound subcutaneously or orally (route not specified per compound); compound 48/80 0.5 mg/kg i.v. one hour after treatment; survival after 4 hours; protection of 50% of animals; read-out: compound 48/80 lethality test in rate-ED50. Format: in vivo, rat (male, inbred Wistar strain). The method, then:
Protection of rats from compound 48/80-induced lethality
The protection from compound 48/80-induced lethal circulatory collapse appears to be a simple way of evaluating quantitatively the antihistaminic activity of test compounds. Male rats of an inbred Wistar strain, weighting 240-260 g were used in the experiment. After overnight starvation the rats were transferred to conditioned laboratories (temp. =21±1° C., relative humidity =65±5%).
The rats were treated subcutaneously or orally with a test compound or with the solvent (NaCl solution, 0.9%). One hour after treatment there was injected intravenously compound 48/80, freshly dissolved in water, at a dose of 0.5 mg/kg (0.2 ml/100 g of body weight). In control experiments, wherein 250 solvent-treated animals were injected with the standard dose of compound 48/80, not more than 2.8% of the animals survived after 4 hours. Survival after 4 hours is therefore considered to be a safe criterion of a protective effect of drug administration. Said ED50 -values are the values in mg/kg body weight at which the tested compounds protect 50% of the tested animals against compound 48/80-inducedlethality.

Among the data in patent US5006527A, “Pharmacologically active N-(4-piperidinyl) bicyclic condensed 2-imidazolamine derivatives” (Janssen Pharmaceutica N.V., priority 1989, dated 1991) are ED50 values, retold here.

Take `Cc1ccc(Cn2c(NC3CCN(C)CC3)nc3cccnc32)o1` [Compound 1]: the ED50 amounted to 0.005 mg/kg. For `CCN1CCC(Nc2nc3cccnc3n2Cc2ccc(C)o2)CC1.O=C(O)/C=C/C(=O)O.O=C(O)/C=C/C(=O)O` [Compound 4, N-(1-ethyl-4-piperidinyl)-3-[(5-methyl-2-furanyl)methyl]-3H-imidazo[4,5-b]-pyridin-2-amine (E)-2-butenedioate(1:2)], the ED50 is 0.0025 mg/kg. With `C=CCN1CCC(Nc2nc3cccnc3n2Cc2ccc(C)o2)CC1.O=C(O)/C=C/C(=O)O.O=C(O)/C=C/C(=O)O` [Compound 5, 3-[(5-methyl-2-furanyl)methyl]-N-[1-(2-propenyl)-4-piperidinyl]-3H-imidazo-[4,5-b]pyridin-2-amine (E)-2-butenedioate(1:2)], the ED50 stood at 0.005 mg/kg. Take `Cc1ccc(Cn2c(NC3CCN(C/C=C/c4ccccc4)CC3)nc3cccnc32)o1` [Compound 6]: the ED50 is 0.04 mg/kg. For `CCOCCN1CCC(Nc2nc3cccnc3n2Cc2ccc(C)o2)CC1` [Compound 7], the ED50 was 0.02 mg/kg.

On to `Cc1ccc(Cn2c(NC3CCN(CCCOc4ccccc4)CC3)nc3cccnc32)o1` [Compound 8], for which the ED50 amounted to 0.04 mg/kg. Consider `Cc1ccc(Cn2c(NC3CCN(CCn4c(=O)[nH]c5ccccc54)CC3)nc3cccnc32)o1` [Compound 9], for which the ED50 stood at 0.02 mg/kg. The result for `CCn1nnn(CCN2CCC(Nc3nc4cccnc4n3Cc3ccc(C)o3)CC2)c1=O` [Compound 10] reads 0.04 mg/kg. As for `CCN1CCC(Nc2nc3ccccc3n2Cc2ccc(C)o2)CC1` [Compound 11], the ED50 was 0.01 mg/kg. In the case of `COc1ccc(CCN2CCC(Nc3nc4ccccc4n3Cc3ccc(C)o3)CC2)cc1` [Compound 13], the ED50 came out at 0.04 mg/kg. For `Cc1ccc(Cn2c(NC3CCN(CCc4cccs4)CC3)nc3cccnc32)o1` [Compound 15], the ED50 stood at 0.04 mg/kg. `CC(=O)CCCN1CCC(Nc2nc3cccnc3n2Cc2ccc(C)o2)CC1` [Compound 18]: the ED50 was found to be 0.01 mg/kg. As to `CCn1nnn(CCN2CCC(Nc3nc4ccccc4n3Cc3ccc(C)o3)CC2)c1=O.O=C(O)C(=O)O.O=C(O)C(=O)O` [Compound 22, 1-ethyl-1,4-dihydro-4-[2-[4-[[1-[(5-methyl-2-furanyl)methyl]-1H-benzimidazol-2-yl]-amino]-1-piperidinyl]ethyl]-5H-tetrazol-5-one ethanedioate(1:2)], the ED50 came to 0.04 mg/kg. In the case of `Cc1ccc(Cn2c(NC3CCN(CC(O)COc4ccccc4)CC3)nc3cccnc32)o1` (stereo not shown) [Compound 26], the ED50 amounted to 0.04 mg/kg. `CCc1ccc(Cn2c(NC3CCN(C)CC3)nc3cccnc32)o1` [Compound 29]: the ED50 worked out at 0.04 mg/kg. As for `Cc1occc1Cn1c(NC2CCN(C)CC2)nc2cccnc21` [Compound 36], the ED50 was 0.04 mg/kg.

Take `CCCCN1CCC(Nc2nc3cccnc3n2Cc2ccc(C)o2)CC1` [Compound 37]: the ED50 was 0.02 mg/kg. Turning to `Cc1ccc(Cn2c(NC3CCN(CCCn4c(=O)[nH]c5ccccc54)CC3)nc3cccnc32)o1` [Compound 38], the ED50 was 0.02 mg/kg. `CCCCCCN1CCC(Nc2nc3cccnc3n2Cc2ccc(C)o2)CC1` [Compound 39]: the ED50 came out at 0.04 mg/kg. For the molecule `CNC(=O)NCCN1CCC(Nc2nc3ccccc3n2Cc2ccc(C)o2)CC1` [Compound 40, N-methyl-N'-[2-[4-[[1-[(5-methyl-2-furanyl)methyl]-1H-benzimidazol-2-yl]amino]-1-piperidinyl]ethyl]urea], the ED50 came out at 0.02 mg/kg. The result for `CC(=O)CCN1CCC(Nc2nc3cccnc3n2Cc2ccc(C)o2)CC1` [Compound 41] reads 0.01 mg/kg. Consider `CCCCCN1CCC(Nc2nc3cccnc3n2Cc2ccc(C)o2)CC1` [Compound 42], for which the ED50 is 0.04 mg/kg.

For `Cc1ccc(Cn2c(NC3CCN(CCCC(=O)c4ccc(F)cc4)CC3)nc3cccnc32)o1` [Compound 46], the ED50 is 0.04 mg/kg. Consider `Cc1occc1Cn1c(NC2CCN(CCn3c(=O)[nH]c4ccccc43)CC2)nc2cccnc21` [Compound 53], for which the ED50 was found to be 0.04 mg/kg. Regarding `Cc1ccoc1Cn1c(NC2CCN(C)CC2)nc2cccnc21` [Compound 56], the ED50 was 0.04 mg/kg.

With `Cc1coc(Cn2c(NC3CCN(C)CC3)nc3cccnc32)c1` [Compound 62], the ED50 is 0.005 mg/kg. With `Cc1coc(Cn2c(NC3CCN(CCn4c(=O)[nH]c5ccccc54)CC3)nc3cccnc32)c1` [Compound 63], the ED50 was found to be 0.04 mg/kg. The result for `COc1ccc(CCN2CCC(Nc3nc4cccnc4n3Cc3cc(C)co3)CC2)cc1` [Compound 64] reads 0.04 mg/kg.
